Data from US20230096602A1, “TETRAHYDROCYCLOPENTA[B]INDOLE COMPOUNDS FOR TREATMENT OF RENAL DISEASE” (Eirgen Pharma Ltd., priority 2020, published 2023).

Key:
[1] = test system: orchidectomized (ORX) rats; assay: Testosterone induced prostate and seminal vesicle growth in delayed ORX rat model; type: in vivo; settings: for seminal vesicle wet weights Abs(Dif)-LSD / prostate weights Abs(Dif)-LSD: Dunnett
Description: (§1) Orchidectomized (ORX) and sham-operated Wistar male rats were used (orchidectomized at 8 weeks of age and allowed to waste for 4 weeks). […] Rats were randomized and placed into treatment groups (n=6) based on body weight. Route of administration for all groups except testosterone enanthate (TE was given sub-cutaneously) was oral. At the end of 2 weeks of daily rats were euthanized, weighed & tissue harvested. Levator ani, prostates, and seminal vesicles were collected from each animal. Results are plotted as means±SE.

healthy subjects [2] = settings: healthy volunteers, any time point or dose; data of WO 2016040234; cited from earlier work
healthy subjects [3] = assay: Study GPBC multiple-dose 28 days; type: in vivo, human; settings: 1 mg to 75 mg daily dose for 28 days
[4] = Margin of safety (AUC), dog; type: in vivo
[5] = Margin of safety (AUC), cat as printed; type: in vivo; settings: cat (so in the source)
dog prostate = assay: Dog toxicology: prostate weight and atrophy; type: in vivo
[6] = test system: male subjects with LUTS secondary to BPH; assay: Study SAR-202 phase 2, 16 weeks; type: in vivo, human
[7] = test system: patients with ED who had an incomplete response to tadalafil; assay: Study GPEC phase 2, 12 weeks; type: in vivo, human; settings: for Change in Fat Mass (%) (week 12) / Change in Lean Body Mass (%) (week 12): 5 mg
Description: The Phase 2 Study for ED also included exploratory measures for lower extremity muscle strength and power, LBM and fat mass.

clinical study subjects = assay: Clinical safety assessment across studies; type: in vivo, human; settings: phase 2 study
[8] = test system: orchidectomized (ORX) rats; assay: Bone effects in osteopenic ORX rat model; settings: in vivo
healthy subjects [9] = assay: Study GPBA QTcF concentration-response analysis; type: in vivo, human; settings: concentrations found with doses of 250 mg or greater
Experimental: At TT701 concentrations found with doses of 250 mg or greater, the mean QTcF prolongation was greater than 10 msec. The risk for clinically significant QT prolongation at doses <250 mg can be excluded.

rat uterus = assay: Rat uterine risk; type: in vivo
[10] = Human PK, single and repeated doses; type: in vivo
Description: The human pharmacokinetics (PK) of OPK-88004 was investigated following single and repeated doses. Following tmax, OPK-88004 concentrations appear to decline in a biexponential fashion characterized by a short distribution phase and a long terminal phase. Exposure appears to increase approximately dose proportionally in the clinical dosing range. Steady state was achieved within 28 days of dosing. […] These therapeutic benefits of more controlled exposure may result in improved LBM and physical/muscle strength preservation, physical function improvement and muscle wasting prevention. OPK-88004 bioexponential PK profile is important for the optimization of side effect benefit/risk ratio in special populations including dialysis patients.

[11] = test system: patients with androgen deficiency; assay: Clinical studies in patients with androgen deficiency; type: in vivo, human; settings: any dose level (up to 75 mg doses)
Description: The exact effect of this decrease in testosterone levels on androgen related anabolic and prostate effects is not known, but may be dependent on the base levels of testosterone.

[12] = test system: orchidectomized (ORX) rats; assay: Prostate and seminal vesicle weight in ORX rat model
Description: as §1

ER, GR, PR MR = assay: Binding to other nuclear hormone receptors; settings: selectivity
[13] = test system: orchidectomized (ORX) rats; assay: Levator ani muscle in delayed ORX rat model; type: in vivo; settings: for levator ani W/BW Mean: delayed ORX rat
Description: Results are plotted as means±SE.
Following the androgen deficiency in the ORX model, the Levator ani- and bulbocavernous muscle weights decreased in size.

LnCAP cells = assay: LnCAP gene expression; type: cell-based, human; settings: CLUSTERIN
[14] = baseline testosterone <340 ng/dL
[15] = baseline testosterone ≥340 ng/dL
[16] = ORX + TE, 1 mg/kg/d + Example 1, 3 mg/kg/d vs ORX + TE
[17] = ORX + TE, 1 mg/kg/d + Example 1, 10 mg/kg/d vs ORX + TE
[18] = ORX + TE, 1 mg/kg/d + Example 1, 30 mg/kg/d vs ORX + TE

CCCCCCC(=O)O[C@H]1CC[C@H]2[C@@H]3CCC4=CC(=O)CC[C@]4(C)[C@H]3CC[C@]12C [Testosterone Enanthate, reference compound]
prostate weight and seminal vesical weight ([1]; orchidectomized rats, 1 mg/k/d alone, 2 weeks): increase

CC(C)OC(=O)N[C@H]1Cc2c(n(Cc3ccccn3)c3ccc(C#N)cc23)C1 [compound of Formula II, (S)-(7-cyano-4-pyridin-2-ylmethyl-1,2,3,4-tetrahydro-cyclopenta[b]indol-2-yl)-carbamic acid isopropyl ester]
prostate specific antigen (PSA) levels, changes from baseline vs placebo (healthy subjects [2]): no significant changes
PSA test, effect on the prostate (healthy subjects [3]): neutral to negative effect
MOS (AUC) [4]: 28 X
MOS (AUC) [5]: 71 X
decreases of prostate weight (dog prostate; dogs, by 3 months (so in the source)): 60-75%
progressive decrease in prostate size (dog prostate; normal dogs, six-month treatment period): 60%
Change in Fat mass (kg) (week 16) ([6]; 15 mg, 16 weeks): -1.47 kg
Change in Fat mass (kg) (week 16) ([6]; 25 mg, 16 weeks): -1.49 kg
Change in Lean Body Mass (kg) (week 16) ([6]; 25 mg, 16 weeks, listed as OPK-88008): 1.96 kg
Change in Prostate Specific Antigen (week 16 to baseline) ([6]; 25 mg, listed as OPK-88008): −15.44 (p = 0.006)
Change in Fat Mass (%) (week 12) [7, 14]: −1.85%
Change in Lean Body Mass (%) (week 12) [7, 14]: 1.60%
Change in Fat Mass (%) (week 12) [7, 15]: −0.95%
Change in Lean Body Mass (%) (week 12) [7, 15]: 0.88%
Hematocrit ([7]; 12 weeks (FIG. 11)): no change
transient abnormal AST or ALT level (clinical study subjects; one subject): > 3 ×ULN
transient abnormal AST or ALT level (clinical study subjects; two subjects): > 2 ×ULN
Bone Eff (BM) [8]: 2 mpk
mean QTcF prolongation (healthy subjects [9]): greater than 10 msec
Rat uterine risk (rat uterus): 20 mpk
Accumulation with multiple dosing ([10]; in vivo): up to 2.5 fold
time to steady state ([10]; repeated dosing): ≤ 28 days
seminal vesicle wet weights Abs(Dif)-LSD ([1]; ORX + Example 1, 10 mg/kg/d (no TE) vs ORX + TE): 1.411
prostate weights Abs(Dif)-LSD [1, 16]: −0.11
seminal vesicle wet weights Abs(Dif)-LSD [1, 16]: −0.34
prostate weights Abs(Dif)-LSD [1, 17]: 0.036
seminal vesicle wet weights Abs(Dif)-LSD [1, 17]: 0.078
prostate weights Abs(Dif)-LSD [1, 18]: 0.025
seminal vesicle wet weights Abs(Dif)-LSD [1, 18]: 0.536
prostate weight and seminal vesical weights normalized to body weight ([1]; TE 1 mg/kg/d + 3, 10 and 30 mg/kg/d, 2 weeks, compared to TE alone): decreasing
PSA [11]: No increases
prostate or seminal vesical weights ([12]; delayed ORX rats, 2 or 8 weeks, increasing doses up to 20-30 mg/kg): no effect
changes in the prostate ([12]; orchidectomized rats, 30 mg/kg, highest dose examined): did not induce changes
Rat SV/Prost risk mgs/kg ([12]; rat): >30 mpk
binding affinity for hAR compared to other nuclear hormone receptors (ER, GR, PR MR): > 500 fold
levator ani W/BW Mean ([13]; 8 weeks, dose 1): 0.2749 mg/g
levator ani W/BW Mean ([13]; 8 weeks, dose 3): 0.2575 mg/g
levator ani W/BW Mean ([13]; 8 weeks, dose 10): 0.3237 mg/g
levator ani W/BW Mean ([13]; 8 weeks, dose 20): 0.325 mg/g
Muscle LA ED mg/kg ([13]; rat): 3 mpk
EC50 (LnCAP cells): > 100 nM

B1: PTH: PTH 10 comparator group in the delayed ORX rat model, Table 7 (peptide, UniProt P01270 32-115, looked up)
Parathyroid hormone: SVSEIQLMHNLGKHLNSMERVEWLRKKLQDVHNFVALGAPLAPRDAGSQRPRKKEDNVLVESHEKSLGEADKADVNVLTKAKSQ
modifications: Parathyroid hormone
levator ani W/BW Mean ([13]; PTH 10 (head: ug/kg/d)): 0.1665 mg/g
